Assay results: patent US20120101110A1, “Diaza-spiro[5.5]undecanes” (priority 2010, published 2012)

Experiments:
human orexin 2 receptors = biological target: T1, human orexin 2 receptors (Homo sapiens, UniProt O43614); test: Calcium accumulation in cells (FLIPR), hOx2R; type: cell-based; conditions: cells expressing human orexin 2 receptor; inhibition of orexin A-induced calcium accumulation; Cheng and Prusoff correction
T1 sequence (O43614 1-444): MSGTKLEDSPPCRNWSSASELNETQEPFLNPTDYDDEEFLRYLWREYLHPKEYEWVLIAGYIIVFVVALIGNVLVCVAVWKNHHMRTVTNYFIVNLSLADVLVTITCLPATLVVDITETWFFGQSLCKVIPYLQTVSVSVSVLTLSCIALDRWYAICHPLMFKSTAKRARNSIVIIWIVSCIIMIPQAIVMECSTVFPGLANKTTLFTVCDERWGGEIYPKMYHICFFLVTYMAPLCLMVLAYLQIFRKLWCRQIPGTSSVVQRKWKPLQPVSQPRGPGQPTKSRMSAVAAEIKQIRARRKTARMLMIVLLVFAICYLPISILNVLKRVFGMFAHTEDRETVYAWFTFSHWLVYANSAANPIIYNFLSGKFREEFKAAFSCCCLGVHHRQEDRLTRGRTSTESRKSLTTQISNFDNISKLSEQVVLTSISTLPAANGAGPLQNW
Method: (§1) Cells expressing human orexin 1 or human orexin 2 receptors, were seeded at 8,000 cells/well in 384 well black-walled clear bottom, poly-D-lysine coated plates. After 24 h, the medium was removed and cells were washed once with phosphate buffered saline and serum-deprived overnight in assay buffer (130 mM NaCl, 5.4 mM KCl, 1.8 mM CaCl2, 0.8 mM MgSO4, 0.9 mM NaH2PO4, 25 mM glucose, 20 mM HEPES, pH 7.4) containing bovine serum albumin (1% w/v).
On the day of the experiment, the cells seeded in black plates were treated with assay buffer containing the Ca^2+sensitive fluorescent dye Fluo-4-AM (2 μM), and probenecid (0.1 mM). After 1 h plates were washed twice with, and resuspended in, assay buffer containing probenecid (0.1 mM) using a multi plate washer. […] Fluorescence measurements were then continued every 1 S for 120 S followed by every 4 S for 240 S.
The measurements were typically made in two sequences:
(§2) Compounds of formula I were tested usually in a concentration range from 10^−9 M to 10^−5 M. In the second round, performed one hour later (to allow for equilibration), Orexin A was tested either in the absence (calibration curves, Orexin A agonist controls) or in the presence of compounds of formula I to determine antagonism.

human orexin 1 receptors = biological target: T2, human orexin 1 receptors (Homo sapiens, UniProt O43613); test: Calcium accumulation in cells (FLIPR), hOx1R; conditions: for inhibition at 10 µM: read-out: FLIPR hOx1R % inhibition value
T2 sequence (O43613 1-425): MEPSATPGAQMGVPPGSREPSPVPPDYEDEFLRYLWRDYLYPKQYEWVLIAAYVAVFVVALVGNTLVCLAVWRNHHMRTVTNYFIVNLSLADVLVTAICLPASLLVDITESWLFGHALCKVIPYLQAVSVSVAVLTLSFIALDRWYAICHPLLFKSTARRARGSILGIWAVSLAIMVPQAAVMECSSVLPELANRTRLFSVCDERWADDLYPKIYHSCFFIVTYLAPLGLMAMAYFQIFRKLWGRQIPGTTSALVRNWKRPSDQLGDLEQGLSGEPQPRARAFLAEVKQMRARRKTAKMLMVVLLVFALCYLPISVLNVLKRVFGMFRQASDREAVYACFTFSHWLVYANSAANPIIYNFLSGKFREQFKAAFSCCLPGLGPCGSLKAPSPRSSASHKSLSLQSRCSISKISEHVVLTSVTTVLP
Method: as §1
On the day of the experiment, the cells seeded in black plates were treated with assay buffer containing the Ca^2+sensitive fluorescent dye Fluo-4-AM (2 μM), and probenecid (0.1 mM). After 1 h plates were washed twice with, and resuspended in, assay buffer containing probenecid (0.1 mM) using a multi plate washer. The plates were placed into a FLIPR II (Fluorometric Imaging Plate Reader, Molecular Devices, Sunnyvale, Calif., USA) and baseline fluorescence (fluorescence light units, FLU) was measured (5 measurements, 2 S each; laser excitation 488 nm at 0.6-1 W, CCD camera exposure 0.4 s) before addition of buffer alone (basal) or containing test compounds (either compound of formula I alone, agonist alone or agonist in the presence of various concentrations of compounds of formula I). Fluorescence measurements were then continued every 1 S for 120 S followed by every 4 S for 240 S.
as §2
Inhibition data is expressed in Table 2 as Ki [μM], converted by the Cheng and Prusoff correction (Ki=IC50/1+(L/EC50)), where IC50 is the 50% inhibition value determined in concentration response inhibition curves, EC50 is the half maximal activation concentration determined for orexin A in concentration response curves and L is the concentration of orexin A used in inhibition experiments performed in with a submaximal concentration of orexin A in the presence of up to 8 increasing concentrations of compound of formula I. Inhibition data is also expressed in Table 2 as % inhibition value measured at a concentration of 10 μM of selected compounds of formula I.

SMILES	Ki (human orexin 2 receptors)	inhibition at 10 µM (human orexin 1 receptors)	Ki (human orexin 1 receptors)
Cc1cncc(N2CCC3(CCCN(Cc4c[nH]c5ccccc45)C3=O)CC2)c1 [Example 58, 2-((1H-indol-3-yl)methyl)-9-(5-methylpyridin-3-yl)-2,9-diazaspiro[5.5]undecan-1-one]	156 nM	31%	–
COc1ccc(N2CCC3(CCCN(Cc4c[nH]c5ccccc45)C3=O)CC2)cc1OC [Example 59, 2-((1H-indol-3-yl)methyl)-9-(3,4-dimethoxyphenyl)-2,9-diazaspiro[5.5]undecan-1-one]	1380 nM	15%	–
COc1cccc(N2CCC3(CCCN(Cc4c[nH]c5ccccc45)C3=O)CC2)c1 [Example 60, 2-((1H-indol-3-yl)methyl)-9-(3-methoxyphenyl)-2,9-diazaspiro[5.5]undecan-1-one]	228 nM	–	3110 nM
COc1cncc(N2CCC3(CCCN(Cc4c[nH]c5ccccc45)C3=O)CC2)c1 [Example 62, 2-((1H-indol-3-yl)methyl)-9-(5-methoxypyridin-3-yl)-2,9-diazaspiro[5.5]undecan-1-one]	117 nM	31%	–
Cc1cc(N2CCC3(CCCN(Cc4c[nH]c5ccccc45)C3=O)CC2)cc(C)n1 [Example 63, 2-((1H-indol-3-yl)methyl)-9-(2,6-dimethylpyridin-4-yl)-2,9-diazaspiro[5.5]undecan-1-one]	1280 nM	16%	–
Cc1ccc(N2CCC3(CCCN(Cc4c[nH]c5ccccc45)C3=O)CC2)nc1C [Example 64, 2-((1H-indol-3-yl)methyl)-9-(5,6-dimethylpyridin-2-yl)-2,9-diazaspiro[5.5]undecan-1-one]	150 nM	–	3370 nM
Cc1cccnc1N1CCC2(CCCN(Cc3c[nH]c4ccccc34)C2=O)CC1 [Example 66, 2-((1H-indol-3-yl)methyl)-9-(3-methylpyridin-2-yl)-2,9-diazaspiro[5.5]undecan-1-one]	991 nM	36%	–
Cc1ccc(N2CCC3(CCCN(Cc4c[nH]c5ccccc45)C3=O)CC2)nc1 [Example 68, 2-((1H-indol-3-yl)methyl)-9-(5-methylpyridin-2-yl)-2,9-diazaspiro[5.5]undecan-1-one]	798 nM	14%	–
N#Cc1ccc(N2CCC3(CCCN(Cc4c[nH]c5ccccc45)C3=O)CC2)nc1 [Example 69, 6-(2-((1H-indol-3-yl)methyl)-1-oxo-2,9-diazaspiro[5.5]undecan-9-yl)nicotinonitrile]	320 nM	31%	–
Cc1nccc(N2CCC3(CCCN(Cc4c[nH]c5ccccc45)C3=O)CC2)n1 [Example 70, 2-((1H-indol-3-yl)methyl)-9-(2-methylpyrimidin-4-yl)-2,9-diazaspiro[5.5]undecan-1-one]	240 nM	–	1810 nM
Cc1cc(N2CCC3(CCCN(Cc4c[nH]c5ccccc45)C3=O)CC2)nc(C)n1 [Example 71, 2-((1H-indol-3-yl)methyl)-9-(2,6-dimethylpyrimidin-4-yl)-2,9-diazaspiro[5.5]undecan-1-one]	166 nM	31%	–
Cc1cnc(N2CCC3(CCCN(Cc4c[nH]c5ccccc45)C3=O)CC2)cn1 [Example 72, 2-((1H-indol-3-yl)methyl)-9-(5-methylpyrazin-2-yl)-2,9 diazaspiro[5.5]undecan-1-one]	280 nM	16%	–
COCc1cccc(N2CCC3(CCCN(Cc4c[nH]c5ccccc45)C3=O)CC2)n1 [Example 73, 2-((1H-indol-3-yl)methyl)-9-(6-(methoxymethyl)pyridin-2-yl)-2,9-diazaspiro[5.5]undecan-1-one]	639 nM	30%	–
N#Cc1cc(C#N)nc(N2CCC3(CCCN(Cc4c[nH]c5ccccc45)C3=O)CC2)n1 [Example 76, 2-(2-((1H-indol-3-yl)methyl)-1-oxo-2,9-diazaspiro[5.5]undecan-9-yl)pyrimidine-4,6-dicarbonitrile]	1130 nM	< 10%	–
N#Cc1cncc(N2CCC3(CCCN(Cc4c[nH]c5ccccc45)C3=O)CC2)n1 [Example 77, 6-(2-((1H-indol-3-yl)methyl)-1-oxo-2,9-diazaspiro[5.5]undecan-9-yl)pyrazine-2-carbonitrile]	173 nM	–	3630 nM
CCc1ccnc(N2CCC3(CCCN(Cc4c[nH]c5ccccc45)C3=O)CC2)n1 [Example 79, 2-((1H-indol-3-yl)methyl)-9-(4-ethylpyrimidin-2-yl)-2,9-diazaspiro[5.5]undecan-1-one]	126 nM	–	708 nM
Cc1nnc(N2CCC3(CCCN(Cc4c[nH]c5ccccc45)C3=O)CC2)s1 [Example 85, 2-((1H-indol-3-yl)methyl)-9-(5-methyl-1,3,4-thiadiazol-2-yl)-2,9-diazaspiro[5.5]undecan-1-one]	664 nM	42%	–
Cc1cnc(C)c(N2CCC3(CCCN(Cc4c[nH]c5ccccc45)C3=O)CC2)n1 [Example 86, 2-((1H-indol-3-yl)methyl)-9-(3,6-dimethylpyrazin-2-yl)-2,9-diazaspiro[5.5]undecan-1-one]	545 nM	22%	–
COc1cc(N2CCC3(CCCN(Cc4c[nH]c5ccccc45)C3=O)CC2)ncn1 [Example 87, 2-((1H-indol-3-yl)methyl)-9-(6-methoxypyrimidin-4-yl)-2,9-diazaspiro[5.5]undecan-1-one]	351 nM	20%	–
O=C1N(Cc2c[nH]c3ccccc23)CCCC12CCN(c1ccc(C(F)(F)F)cn1)CC2 [Example 89, 2-((1H-indol-3-yl)methyl)-9-(5-(trifluoromethyl)pyridin-2-yl)-2,9-diazaspiro[5.5]undecan-1-one]	426 nM	18%	–
Cc1ccnc(N2CCC3(CCCC(=O)N3Cc3ccccc3-c3nc(C)no3)CC2)n1 [Example 99, 1-(2-(3-methyl-1,2,4-oxadiazol-5-yl)benzyl)-9-(4-methylpyrimidin-2-yl)-1,9-diazaspiro[5.5]undecan-2-one]	614 nM	12%	–
COCc1cccc(CN2CCCC3(CCN(c4nc(C)cc(C)n4)CC3)C2=O)c1 [Example 125, 9-(4,6-dimethylpyrimidin-2-yl)-2-(3-(methoxymethyl)benzyl)-2,9-diazaspiro[5.5]undecan-1-one]	177 nM	22%	–
COCc1ccccc1CN1CCCC2(CCN(c3nc(C)cc(C)n3)CC2)C1=O [Example 126, 9-(4,6-dimethylpyrimidin-2-yl)-2-(2-(methoxymethyl)benzyl)-2,9-diazaspiro[5.5]undecan-1-one]	140 nM	31%	–
COCc1cccc(CN2CCCC3(CCN(c4nc(C)cc(OC)n4)CC3)C2=O)c1 [Example 127, 9-(4-methoxy-6-methylpyrimidin-2-yl)-2-(3-(methoxymethyl)benzyl)-2,9-diazaspiro[5.5]undecan-1-one]	100 nM	–	2110 nM
